Reference: patent US9498412B2, “Method for producing microcapsules with a sun protection effect” (Greenjoy Biotech Co., Ltd., priority 2014, dated 2016)
Like-named read-outs stand apart in the source and are kept apart here.

Assay type: in vitro ADME
Conditions: Landrace, pig, 3 % in mineral oil
Protocol: 5. In Vitro Transdermal Delivery Analysis:
(1) Preparing penetration membranes from a swine skin: An ear skin of a 6-month-old Landrace pig was prepared and cleaned with deionized water. The upper skin of the pig ear was cut by a scalpel to remove the fat layer. Then, the pig ear was cut into a plurality of penetration membranes each having an area of 1.5×1.5 cm^2 and each having a thickness of 605 μm. The penetration membranes were soaked in phosphate buffer saline (PBS), were sealed in a bag, and were frozen for future use.
(2) Before experiment, the penetration membranes were unfrozen in PBS to room temperature such that the gaps between the keratinocyte cells returned to their natural state. The penetration membranes were fixed in a Franz-type diffusion cell (see FIG. 2). The diffusion area was 0.636 cm^2. To test the skin integrity, the upper and lower sections of the diffusion cell were filled with 50% ethanol+50% PBS. After removing bubbles from the lower chamber, a sample of 0.5 g was placed into the upper, donor cell, and 50% ethanol+50% PBS was placed into the lower, receptor cell having a volume of 5.3 mL. A thermostat water tank heater was used to control the water temperature to be 35° C.±1. Stirring was carried out by using a magnet to balance the drug concentration distribution in the receptor cell.
(3) Each experiment used 5 diffusion cells to obtain the average value. 50 μL was sampled from the receptor cell and analyzed by HPLC. The same amount of a physiological solution was filled back into the receptor cell to maintain the total volume in the receptor cell.
(4) The injected volume was 50 μL. The detection wavelength was 260 nm. A mixture of 88% methanol, 11% water, and 1% acetic acid was used as the mobile phase in isocratic elution. The flow rate of the mobile phase was 1.0 mL/min. OMC of 1 ppm, 10 ppm, 50 ppm, and 100 ppm and avobenzone standard solution were used to create a calibration curve. Each concentration was detected three times to obtain the average value. Peak-ABC Chromatography Data Handling System (manufactured by Great Tide Instruments, Taiwan) was used to capture and handle the signals. A sample of 50 μL was sampled from the receptor cell and analyzed by HPLC. Peak-ABC Chromatography Data Handling System was used to analyze the concentration for calculating the lag time and the flux.
The Franz-type diffusion cell system was used to assess the penetration characteristics of carrier-entrapped filters. […] The stratum corneum is an important barrier of the skin for resisting alien objects and is also a hindrance to transdermal delivery of an active constituent. During an initial stage of passage from the donor site to the receptor site through the skin, there is a lag time for the active constituent to penetrate the membrane of the saturated skin. After that, the active constituent remains in steady-state diffusion for a period of time during which the diffusion flux is not changed.
Assume the concentrations of the active constituent at the donor site and the receptor site of the penetration membrane are respectively Cv and Cr, the mechanism of initial transdermal absorption can be explained by Fick's first law of diffusion: J=dQ/Dt=DAK(Cv−Cr)/h
wherein J is the transdermal flux, Q is the cumulative penetration amount, D is the diffusion coefficient, A is the diffusional surface area, K is the partition coefficient, and h is the diffusional pathlength.
Since Cr is very small at the initial stage of penetration, DC=(Cv−Cr) arrpoximates Cv. The transdermal flux is in proportion to the concentration difference ([…]). Thus, the slope of an optimal line in a diagram obtained from the cumulative penetration quantity Q and the penetration time t is the transdermal flux J. The lag time parameter can be obtained by linear extrapolation to the intersection on X axis. […]

| SMILES | Amount in receptor site (0 h) [μg/cm^2] | Transdermal flux (%) (0 h) | lag time [h] | Amount in receptor site (0.5 h) [μg/cm^2] | Transdermal flux (%) (0.5 h) | Amount in receptor site (1 h) [μg/cm^2] | Transdermal flux (%) (1 h) | Amount in receptor site (2 h) [μg/cm^2] | Transdermal flux (%) (2 h) | Amount in receptor site (3 h) [μg/cm^2] | Transdermal flux (%) (3 h) | Amount in receptor site (6 h) [μg/cm^2] | Transdermal flux (%) (6 h) | transdermal flux (6 h) [μg/cm^2·hr] | transdermal flux (4 h) [μg/cm^2·hr] |
| --- | --- | --- | --- | --- | --- | --- | --- | --- | --- | --- | --- | --- | --- | --- | --- |
| COc1ccc(C(=O)CC(=O)c2ccc(C(C)(C)C)cc2)cc1 [avobenzone] | 0 | 0 | 0.23 | 0 | 0 | 20.12 ± 2.19 | 0.09 ± 0.01 | 48.21 ± 2.73 | 0.20 ± 0.01 | 84.85 ± 4.27 | 0.36 ± 0.02 | 161.26 ± 3.74 | 0.68 ± 0.02 | 28.237 |  |
| CCCCC(CC)COC(=O)C=Cc1ccc(OC)cc1 (stereo not shown) [OMC, octyl methoxycinnamate] | 0 | 0 | 0.15 | 0 | 0 | 31.84 ± 1.81 | 0.13 ± 0.01 | 65.15 ± 7.96 | 0.28 ± 0.03 | 121.97 ± 4.95 | 0.52 ± 0.02 | 227.55 ± 12.94 | 0.96 ± 0.05 |  | 40.069 |
